Legend:
[1] = tested on: hypercholesterolemic patients; assay: Phase 2b double-blind trial: safety, treatment-emergent adverse events and laboratory abnormalities
Protocol: The study population included both statin-tolerant and statin-intolerant participants. Statin intolerance was defined as the inability to tolerate ≥2 statins because of muscle-related symptoms such as pain, weakness, or cramping that began or increased during statin therapy and resolved on statin discontinuation. At least 1 statin must have been administered at the lowest approved daily dose, defined as rosuvastatin 5 mg, atorvastatin 10 mg, simvastatin 10 mg, lovastatin 20 mg, pravastatin 40 mg, fluvastatin 40 mg, or pitavastatin 2 mg. Treatment with less than the lowest approved daily dose of a statin (i.e., skipping days) was considered equivalent to not tolerating 1 statin at the lowest approved daily dose.
Patients underwent a 5-week washout of all lipid-regulating drugs and dietary supplements and abstained from these drugs and supplements throughout the study. Patients also underwent a 5-week patient-only-blinded placebo run-in during the screening period (week −5 to week 0). This single-blind placebo run-in period was used to eliminate patients with muscle-related AEs during placebo treatment. Patients reporting new or worsening, unexplained muscle-related AEs during this run-in period were excluded from the study.
Patients were stratified (1:1) by history of statin intolerance and randomized at week 0 in a 4:4:4:1:1 ratio to once-daily treatment with capsules containing ETC-1002 120 mg, ETC-1002 180 mg, EZE, ETC-1002 120 mg plus EZE, or ETC-1002 180 mg plus EZE.
The safety of ETC-1002 was assessed using treatment-emergent AEs; hematology, serum chemistry, and urinalysis laboratory values; physical examination findings, vital sign measurements, electrocardiogram (ECG) readings; weight; and ankle and waist circumference measurements. AEs were coded using the Medical Dictionary for Regulatory Activities version 16.0 and evaluated by the investigator for severity and relation to study drug. Muscle-related AEs were defined as those from the system organ class of musculoskeletal and connective tissue disorders, except for those that were not obviously muscle related Terms included in the muscle-related AFE analysis were selected from this system organ class after database lock and before unblinding.
Safety analyses were performed on the safety population, which included randomized patients who received at least 1 dose of study drug. Baseline patient characteristics were summarized for the safety population by treatment group and statin-tolerance subgroup.
Muscle-related AEs also were summarized by statin-tolerance subgroup.

[2] = tested on: hypercholesterolemic patients; assay: Phase 2b double-blind trial: percent changes from baseline to week 12 in lipids and CRP; format: in vivo, human
Protocol: LDL-C was calculated using the Friedewald equation.
The primary endpoint was the percent change from baseline to week 12 in calculated LDL-C in patients treated with ETC-1002 monotherapy versus those treated with EZE alone. Secondary endpoints included the dose-response relationship between ETC-1002 and the percent change in LDL-C from baseline to week 12, the percent change in LDL-C from baseline to week 12 in patients treated with ETC-1002 plus EZE versus those treated with EZE alone, and the percent change from baseline to week 12 for all treatment groups in LDL particle number, apolipoprotein B, total cholesterol, non-high-density lipoprotein cholesterol (non-HDL-C), HDL-C, HDL particle number, apolipoprotein A-I, triglycerides, very-low-density lipoprotein (VLDL) particle number, and high-sensitivity C-reactive protein (CRP). Lipoprotein particle number was measured using nuclear magnetic resonance […].
An analysis of covariance was used to compare each ETC-1002 treatment group with EZE monotherapy for each of the efficacy endpoints. The primary model included the effects of treatment and statin intolerance and the baseline value as a covariate. Baseline was defined as the mean of values from weeks −1 and 0 for LDL-C, non-HDL-C, total cholesterol, HDL-C, and triglycerides. For all other lipid and biomarker measures, baseline was defined as the last value before the first dose of study drug. Missing values at week 12 were imputed using the last-observation-carried-forward procedure. When LDL-C could not be calculated (i.e., triglycerides >400 mg/dL), beta-quantification measurements were used to determine LDL-C values. Least-squares (LS) means and standard errors were obtained for each treatment group; differences in LS means and p-values were obtained for the treatment comparisons. Graphical methods (e.g., normal probability plot and histogram of residuals, plot of residuals vs. predicted values) or analytical methods (e.g., Shapiro-Wilk test), or both, were used to assess the model assumptions. Because of departures from normality observed in the parameters of triglycerides, CRP, and VLDL particle number, nonparametric analyses were performed for these measures, with p-values obtained from the Wilcoxon rank-sum test and median values presented.
Percent changes from baseline in LDL-C also were summarized by statin-tolerance subgroup. To assess the dose-response relationship for ETC-1002 monotherapy, the primary analysis of covariance model was used for the comparison of the ETC-1002 120 mg and ETC-1002 180 mg. Statistical testing of the efficacy endpoints was 2-sided and conducted at the 5% level of significance with no adjustment for multiple comparisons.

[3] = EZE 10 mg once daily, 12 weeks, safety population
[4] = EZE 10 mg once daily, 12 weeks, statin-intolerant patients
[5] = EZE 10 mg once daily, 12 weeks, statin-tolerant patients
[6] = EZE 10 mg once daily, 12 weeks, mITT, LS mean ± SE

Structure (SMILES): O=C1[C@H](CC[C@H](O)c2ccc(F)cc2)[C@@H](c2ccc(O)cc2)N1c1ccc(F)cc1 [EZE, (3R,4S)-1-(4-fluorophenyl)-3-[(3S)-3-(4-fluorophenyl)-3-hydroxypropyl]-4-(4-hydroxyphenyl)azetidin-2-one, reference compound]
- Alanine aminotransferase or aspartate aminotransferase, or both, increased >3 times the upper limit of normal at any measurement ([1]; EZE): 1 patients
- Serious AEs reported (events) ([1]; EZE): transient ischemic attack
- Most common AEs: ALT increased [1, 3]: 1 (1%) n (%)
- Most common AEs: AST increased [1, 3]: 0 n (%)
- Most common AEs: Arthralgia [1, 3]: 4 (4%) n (%)
- Most common AEs: Back pain [1, 3]: 8 (8%) n (%)
- Most common AEs: Blood CK increased [1, 3]: 1 (1%) n (%)
- Most common AEs: Constipation [1, 3]: 1 (1%) n (%)
- Most common AEs: Headache [1, 3]: 1 (1%) n (%)
- Most common AEs: Myalgia [1, 3]: 6 (6%) n (%)
- Most common AEs: Nasopharyngitis [1, 3]: 4 (4%) n (%)
- Most common AEs: Upper respiratory tract infection [1, 3]: 1 (1%) n (%)
- Most common AEs: Urinary tract infection [1, 3]: 6 (6%) n (%)
- Treatment-emergent AEs: Any AE(s) [1, 3]: 53 (54%) n (%)
- Treatment-emergent AEs: Discontinuation due to AE(s) [1, 3]: 8 (8%) n (%)
- Treatment-emergent AEs: Serious AE(s) [1, 3]: 1 (1%) n (%)
- Treatment-emergent AEs: Study drug-related AE(s) [1, 3]: 19 (19%) n (%)
- Any muscle-related AE [1, 4]: 9 (18%) n (%)
- Muscle-related AE leading to discontinuation [1, 4]: 5 (10%) n (%)
- Muscle-related AEs: Muscle spasms [1, 4]: 1 (2%) n (%)
- Muscle-related AEs: Muscular weakness [1, 4]: 1 (2%) n (%)
- Muscle-related AEs: Musculoskeletal chest pain [1, 4]: 0 n (%)
- Muscle-related AEs: Musculoskeletal stiffness [1, 4]: 1 (2%) n (%)
- Muscle-related AEs: Myalgia [1, 4]: 6 (12%) n (%)
- Muscle-related AEs: Pain in extremity [1, 4]: 3 (6%) n (%)
- Muscle-related AEs: Sensation of heaviness [1, 4]: 1 (2%) n (%)
- Any muscle-related AE [1, 5]: 3 (6%) n (%)
- Muscle-related AE leading to discontinuation [1, 5]: 1 (2%) n (%)
- Muscle-related AEs: Muscle spasms [1, 5]: 2 (4%) n (%)
- Muscle-related AEs: Musculoskeletal pain [1, 5]: 1 (2%) n (%)
- Muscle-related AEs: Myalgia [1, 5]: 0 n (%)
- Myalgia, patients affected ([1]; EZE alone, entire study population): 6%
- Percent change from baseline to week 12 in Apolipoprotein A-I [2, 6]: 2.0 ± 1.1%
- Percent change from baseline to week 12 in Apolipoprotein B [2, 6]: −15.2 ± 1.2%
- Percent change from baseline to week 12 in HDL particle number [2, 6]: 6.7 ± 1.3%
- Percent change from baseline to week 12 in HDL-C [2, 6]: 5.0 ± 1.4%
- Percent change from baseline to week 12 in LDL particle number [2, 6]: −12.7 ± 1.7%
- Percent change from baseline to week 12 in LDL-C [2, 6]: −21.2 ± 1.3%
- Percent change from baseline to week 12 in Non-HDL-C [2, 6]: −18.7 ± 1.2%
- Percent change from baseline to week 12 in Total cholesterol [2, 6]: −14.3 ± 0.9%
- Percent change from baseline to week 12 in VLDL particle number ([2]; EZE 10 mg once daily, 12 weeks, mITT, median (interquartile range)): −12.6 (63.4) %
- CRP reduction ([2]; EZE alone): 10%
- HDL-C increase ([2]; EZE alone, week 12): 5%
